The values that follow are results of earlier work, collected in patent publication US7108866B1, “Chronotherapeutic diltiazem formulations and the administration thereof” (Biovall Laboratories International SRL, priority 1999, dated 2006).

The conditions of this series: at steady state.

As a reminder, the Tmax is the time at which the peak concentration occurs. `COc1ccc([C@@H]2Sc3ccccc3N(CCN(C)C)C(=O)[C@@H]2OC(C)=O)cc1` [Diltiazem]: the time to peak (Tmax) was 2 to 6 h.
